Counter-ions that a name gives are not always drawn.
What was measured:
human plasmin = target: T1, human plasmin (Homo sapiens, UniProt P00747); test: Inactivation rate of human plasmin; assay type: biochemical; details: Table VI; pH 7.5, 25° C; [I] 4 to 330 μM; read-out: kobs/[I]
T1 construct: human plasmin; from tissue; host or cells: human plasma

[1] = target: sheep lung lymph tryptase; test: Inactivation rate of sheep lung lymph tryptase; assay type: biochemical; details: Table III; pH 7.5, 25° C; [I] 10 to 460 μM
Procedure: Inactivation rates of serine proteases by substituted isocoumarins were measured by the incubation method. An aliquot of inhibitor (25 or 50 μl) in Me2 SO was added to a buffered enzyme solution (0.01-2.3 μM) to initiate the inactivation. Aliquots (50 μl) were withdrawn at various intervals and the residual enzymatic activity was measured. […] 0.1 Hepes, 0.01M CaCl2, pH 7.5 buffer was utilized for trypsin and coagulation enzymes. […] The inhibitor concentrations are shown in all the tables. Peptide thioesters or peptide nitroanilides with appropriate sequence were used as substrates for various serine proteases.
^a Inactivation rates were measured at 0.1M Hepes, 0.5M NaCl, pH 7.5
buffer, 8% Me2 SO and 25° C.

[2] = Spontaneous hydrolysis in Hepes buffer; assay type: physicochemical; details: hepes buffer; 0.1 Hepes, 0.5M NaCl, pH 7.5, 9% Me2SO, 25° C; read-out: t1/2 for spontaneous hydrolysis
Procedure: ^a Conditions were 0.1 Hepes, 0.5M NaCl, pH 7.5 and 9% Me2 SO at
25° C. Spontaneous hydrolysis rates were measured
spectrophotometrically by monitoring the decrease in absorbance due to th
isocoumarin ring system (wavelength 335-380 nm) using the firstorder rate

cathepsin G = target: T2, cathepsin G (Homo sapiens, UniProt P08311); test: Inactivation of cathepsin G; assay type: biochemical; details: Table IV; pH 7.5, 25° C; [I] 0.002 to 0.35 mM; read-out: kobs/[I]
T2 construct: from tissue; host or cells: human leukocytes
T2 sequence (P08311 21-255): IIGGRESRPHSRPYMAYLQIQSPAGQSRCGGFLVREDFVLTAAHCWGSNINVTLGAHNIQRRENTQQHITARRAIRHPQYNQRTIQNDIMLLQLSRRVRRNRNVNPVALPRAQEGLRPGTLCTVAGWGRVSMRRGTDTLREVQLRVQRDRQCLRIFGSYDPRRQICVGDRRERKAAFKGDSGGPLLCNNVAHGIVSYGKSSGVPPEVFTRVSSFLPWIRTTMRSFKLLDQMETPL

human plasma kallikrein = target: T3, human plasma kallikrein (Homo sapiens, UniProt P03952); test: Inactivation rate of human plasma kallikrein; assay type: biochemical; details: Table I; pH 7.5, 25° C; [I] 3 to 330 μM (footnote g); read-out: kobs/[I]
T3 construct: human plasma kallikrein; from tissue; host or cells: human plasma (from the name)
Procedure: (§1) Inactivation rates of serine proteases by substituted isocoumarins were measured by the incubation method. An aliquot of inhibitor (25 or 50 μl) in Me2 SO was added to a buffered enzyme solution (0.01-2.3 μM) to initiate the inactivation. Aliquots (50 μl) were withdrawn at various intervals and the residual enzymatic activity was measured. Me2 SO concentration in the reaction mixture was 8-12% (v/v). 0.1 Hepes, 0.01M CaCl2, pH 7.5 buffer was utilized for trypsin and coagulation enzymes. 0.1M Hepes, 0.5M NaCl, pH 7.5 was utilized for other serine proteases. The inhibitor concentrations are shown in all the tables. Peptide thioesters or peptide nitroanilides with appropriate sequence were used as substrates for various serine proteases. All peptide thioester hydrolysis rates were measured with assay mixtures containing 4,4'-dithiodipyridine (ε324 =19800M^-1 cm^-1; Grasetti & Murray, Arch. Biochem. Biophys. 119, pp 41-49 (1967)). Peptide 4-nitroanilide nitroanilide hydrolysis was measured at 410 nm (ε410 =8800M^-1 cm^-1; Erlanger et al., Arch. Biochem. Biophys. 95, pp 271-278 (1961)). First order inactivation rate constant (kobs) were obtained from plots of ln (vt /vo) vs time, and the correlation coefficients were greater than 0.98.
(§2) ^a Conditions were as 0.1M Hepes, 0.01M CaCl2, pH 7.5 and 8-12%
(§3) Me2 SO and 25° C. Rate constants were measured by incubation
(§4) method unless otherwise noted. An aliquot of inhibitor was added to an
(§5) enzyme solution and aliquots removed with time and assayed for remaining
(§6) enzymatic activity. Firstorder rate constants, kobs were obtained
(§7) from the plots of ln(vt /vo) versus time.

human factor XIa = target: T4, human factor XIa (Homo sapiens, UniProt P03951); test: Inactivation rate of human factor XIa; assay type: biochemical; details: Table I; pH 7.5, 25° C; [I] 3 to 330 μM; read-out: kobs/[I]
T4 construct: human factor XIa
Procedure: as §1, §2, §3, §4, §5, §6, §7
(§8) ^a Inhibition rates were measured in 0.1M Hepes, 0.01M CaCl2, pH
(§9) 7.5 buffer, 8% Me2 SO and at 25° C.

human factor XIIa = target: T5, human factor XIIa (Homo sapiens, UniProt P00748); test: Inactivation rate of human factor XIIa; assay type: biochemical; details: Table I; pH 7.5, 25° C; [I] 3 to 330 μM; read-out: kobs/[I]
T5 construct: human factor XIIa
T5 sequence (P00748 373-615 limits assumed): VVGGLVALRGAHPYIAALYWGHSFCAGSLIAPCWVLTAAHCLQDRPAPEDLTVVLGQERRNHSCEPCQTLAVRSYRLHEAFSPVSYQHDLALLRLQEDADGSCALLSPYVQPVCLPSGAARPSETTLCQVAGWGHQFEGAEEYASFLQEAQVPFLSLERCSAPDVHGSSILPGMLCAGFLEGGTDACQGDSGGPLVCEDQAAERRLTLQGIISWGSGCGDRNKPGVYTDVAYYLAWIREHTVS
T5 sequence (P00748 20-372 partner limits assumed): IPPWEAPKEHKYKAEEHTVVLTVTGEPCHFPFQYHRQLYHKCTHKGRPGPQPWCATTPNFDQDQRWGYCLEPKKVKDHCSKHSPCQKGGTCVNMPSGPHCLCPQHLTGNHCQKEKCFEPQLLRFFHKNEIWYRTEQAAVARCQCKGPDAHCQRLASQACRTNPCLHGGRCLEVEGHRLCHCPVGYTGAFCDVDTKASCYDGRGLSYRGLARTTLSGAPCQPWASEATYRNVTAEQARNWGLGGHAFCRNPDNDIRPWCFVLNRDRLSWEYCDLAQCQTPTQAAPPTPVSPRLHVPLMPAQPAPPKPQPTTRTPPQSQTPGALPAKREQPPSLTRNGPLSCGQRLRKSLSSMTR
Procedure: as §1, §2, §3, §4, §5, §6, §7, §8, §9

bovine trypsin = target: T6, bovine trypsin (Bos taurus, UniProt P00760); test: Inactivation rate of bovine trypsin; assay type: biochemical; details: Table I; pH 7.5, 25° C; [I] 1 to 12 μM; read-out: kobs/[I]
T6 sequence (P00760 24-246): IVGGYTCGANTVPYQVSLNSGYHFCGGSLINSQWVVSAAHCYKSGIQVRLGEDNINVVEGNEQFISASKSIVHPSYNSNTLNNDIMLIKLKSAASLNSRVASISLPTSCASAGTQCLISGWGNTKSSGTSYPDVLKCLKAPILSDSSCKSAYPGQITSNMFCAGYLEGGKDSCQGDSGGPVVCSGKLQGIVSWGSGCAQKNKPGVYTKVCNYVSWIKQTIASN
Procedure: as §1, §2, §3, §4, §5, §6, §7, §8, §9

[3] = target: T7, porcine pancreatic kallikrein (Sus scrofa, UniProt P00752); test: Inactivation rate of porcine pancreatic kallikrein; assay type: biochemical; details: Table I; pH 7.5, 25° C; [I] 0.4 to 300 μM; read-out: kobs/[I]
T7 construct: from tissue; host or cells: porcine pancreas (from the name)

[4] = target: T8, human leukocyte elastase (HLE) (Homo sapiens, UniProt P08246); test: Inactivation of human leukocyte elastase (HLE); assay type: biochemical; details: Table IV; pH 7.5, 25° C; [I] 0.001 to 0.18 mM; read-out: kobs/[I]
T8 construct: from tissue; host or cells: human leukocytes (from the name)
T8 sequence (P08246 30-267): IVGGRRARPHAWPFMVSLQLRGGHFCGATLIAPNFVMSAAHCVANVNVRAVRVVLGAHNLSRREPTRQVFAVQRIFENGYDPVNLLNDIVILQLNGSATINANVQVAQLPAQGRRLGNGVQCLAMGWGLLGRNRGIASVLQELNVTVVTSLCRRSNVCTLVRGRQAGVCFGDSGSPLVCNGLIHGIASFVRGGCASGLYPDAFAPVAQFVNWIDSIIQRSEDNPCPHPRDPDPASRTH

bovine thrombin = target: T9, bovine thrombin (Bos taurus, UniProt P00735); test: Inactivation rate of bovine thrombin; assay type: biochemical; details: Table I; pH 7.5, 25° C; [I] 0.3 to 400 μM; read-out: kobs/[I]
T9 construct: bovine thrombin
Procedure: as §1, §2, §3, §4, §5, §6, §7, §8, §9

chymotrypsin = chymotrypsin (Bos taurus, UniProt P00766); test: Inactivation of chymotrypsin; assay type: biochemical, bovine; details: Table IV; pH 7.5, 25° C; [I] 0.004 to 0.33 mM; read-out: kobs/[I]
[5] = target: T10, porcine pancreatic elastase (PPE) (Sus scrofa, UniProt P00772); test: Inactivation of porcine pancreatic elastase (PPE); assay type: biochemical; details: Table IV; pH 7.5, 25° C; [I] 0.01 to 0.51 mM; read-out: kobs/[I]
T10 construct: from tissue; host or cells: porcine pancreas (from the name)
T10 sequence (P00772 27-266): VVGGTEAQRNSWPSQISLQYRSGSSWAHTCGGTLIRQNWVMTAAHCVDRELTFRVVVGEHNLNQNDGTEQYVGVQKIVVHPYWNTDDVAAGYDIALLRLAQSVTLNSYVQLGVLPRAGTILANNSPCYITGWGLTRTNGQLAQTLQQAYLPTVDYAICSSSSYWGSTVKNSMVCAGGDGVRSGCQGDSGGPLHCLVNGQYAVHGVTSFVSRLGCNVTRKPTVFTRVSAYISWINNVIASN
Procedure: Inactivation rates of serine proteases by substituted isocoumarins were measured by the incubation method. An aliquot of inhibitor (25 or 50 μl) in Me2 SO was added to a buffered enzyme solution (0.01-2.3 μM) to initiate the inactivation. Aliquots (50 μl) were withdrawn at various intervals and the residual enzymatic activity was measured. Me2 SO concentration in the reaction mixture was 8-12% (v/v). 0.1 Hepes, 0.01M CaCl2, pH 7.5 buffer was utilized for trypsin and coagulation enzymes. 0.1M Hepes, 0.5M NaCl, pH 7.5 was utilized for other serine proteases. […] Peptide thioesters or peptide nitroanilides with appropriate sequence were used as substrates for various serine proteases. All peptide thioester hydrolysis rates were measured with assay mixtures containing 4,4'-dithiodipyridine (ε324 =19800M^-1 cm^-1 ; Grasetti & Murray, Arch. Biochem. Biophys. 119, pp 41-49 (1967)). Peptide 4-nitroanilide nitroanilide hydrolysis was measured at 410 nm (ε410 =8800M^-1 cm^-1 ; Erlanger et al., Arch. Biochem. Biophys. 95, pp 271-278 (1961)). First order inactivation rate constant (kobs) were obtained from plots of ln (vt /vo) vs time, and the correlation coefficients were greater than 0.98.
^a Inactivation rates were measured at 0.1M Hepes, 0.5 NaCl, pH 7.5,
8-12% Me2 SO and 25° C. by incubation method.
^a Inhibition rates were measured in 0.1M Hepes, 0.05M NaCl, pH 7.5
buffer, 8-9% Me2 SO and at 25° C.
^a Inhibition constants were in 0.1M Hepes, 0.5M NaCl, pH 7.5 buffer,
8-9% Me2 SO and at 25° C.
^a Inhibition rates were measured in 0.1M Hepes, 0.5M NaCl, 2.5%
Me2 SO, pH 7,5 and at 25° C.
^a Inhibition was measured in 0.1M Hepes, 0.5M NaCl, pH 7.5 buffer,
5-10% Me2 SO and at 25° C. Suc--Val--Pro--Phe--NA (0.48 mM)
was used as the substrate for chymotrypsin and cat G.
^a Inhibition rates were measured in 0.1M Hepes, 0.5M NaCl, pH 7.5

T1 sequence (P00747 581-810 limits assumed): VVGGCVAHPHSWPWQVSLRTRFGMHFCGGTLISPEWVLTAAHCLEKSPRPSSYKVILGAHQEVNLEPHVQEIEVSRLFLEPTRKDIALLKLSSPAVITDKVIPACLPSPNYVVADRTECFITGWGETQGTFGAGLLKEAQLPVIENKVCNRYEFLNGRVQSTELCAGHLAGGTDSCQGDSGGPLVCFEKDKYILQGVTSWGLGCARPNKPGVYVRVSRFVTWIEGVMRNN
T1 sequence (P00747 97-580 partner limits assumed): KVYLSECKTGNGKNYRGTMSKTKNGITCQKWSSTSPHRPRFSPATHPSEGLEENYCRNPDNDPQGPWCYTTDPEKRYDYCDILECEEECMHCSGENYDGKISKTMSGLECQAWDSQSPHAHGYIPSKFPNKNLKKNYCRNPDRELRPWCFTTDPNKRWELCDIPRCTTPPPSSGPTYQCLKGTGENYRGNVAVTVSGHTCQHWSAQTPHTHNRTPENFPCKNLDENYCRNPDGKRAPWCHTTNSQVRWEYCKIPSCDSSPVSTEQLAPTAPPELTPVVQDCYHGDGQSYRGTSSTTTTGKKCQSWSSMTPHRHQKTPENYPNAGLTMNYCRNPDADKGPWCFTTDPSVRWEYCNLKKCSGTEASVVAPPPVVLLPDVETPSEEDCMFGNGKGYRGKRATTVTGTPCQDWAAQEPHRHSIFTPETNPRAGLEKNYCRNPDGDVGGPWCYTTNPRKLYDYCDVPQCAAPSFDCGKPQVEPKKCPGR
T7 sequence (P00752 8-246): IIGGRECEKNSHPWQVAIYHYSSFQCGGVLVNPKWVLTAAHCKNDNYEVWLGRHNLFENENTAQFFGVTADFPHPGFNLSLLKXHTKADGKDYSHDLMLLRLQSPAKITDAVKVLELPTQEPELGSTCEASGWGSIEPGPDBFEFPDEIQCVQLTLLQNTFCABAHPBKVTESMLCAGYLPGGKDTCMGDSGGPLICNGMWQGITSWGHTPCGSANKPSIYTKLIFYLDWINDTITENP
T4 sequence (P03951 388-625 limits assumed): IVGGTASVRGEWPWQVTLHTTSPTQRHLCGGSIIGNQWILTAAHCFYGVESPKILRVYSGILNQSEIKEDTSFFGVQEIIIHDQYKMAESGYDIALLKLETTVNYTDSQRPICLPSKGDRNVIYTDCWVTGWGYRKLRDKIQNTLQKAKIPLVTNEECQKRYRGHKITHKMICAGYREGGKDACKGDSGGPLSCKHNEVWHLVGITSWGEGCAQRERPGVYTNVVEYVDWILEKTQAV
T4 sequence (P03951 19-387 partner limits assumed): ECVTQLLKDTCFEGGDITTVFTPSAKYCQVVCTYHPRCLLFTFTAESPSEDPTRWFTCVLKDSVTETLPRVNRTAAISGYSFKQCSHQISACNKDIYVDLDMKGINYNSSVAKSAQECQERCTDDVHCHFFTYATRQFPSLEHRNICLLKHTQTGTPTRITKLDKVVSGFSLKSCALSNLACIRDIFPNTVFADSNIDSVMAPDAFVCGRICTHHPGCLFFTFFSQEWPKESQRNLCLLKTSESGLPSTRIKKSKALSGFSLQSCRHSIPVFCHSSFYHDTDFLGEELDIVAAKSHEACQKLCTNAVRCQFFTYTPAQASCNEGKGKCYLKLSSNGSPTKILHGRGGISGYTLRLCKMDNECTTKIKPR
T3 sequence (P03952 391-638 limits assumed): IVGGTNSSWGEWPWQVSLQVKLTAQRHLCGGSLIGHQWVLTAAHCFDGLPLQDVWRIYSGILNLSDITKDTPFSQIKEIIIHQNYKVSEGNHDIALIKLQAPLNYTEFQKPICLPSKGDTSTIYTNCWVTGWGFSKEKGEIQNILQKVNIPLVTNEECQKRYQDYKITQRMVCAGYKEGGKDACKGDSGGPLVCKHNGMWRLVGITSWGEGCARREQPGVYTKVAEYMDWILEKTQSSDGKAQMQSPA
T3 sequence (P03952 20-390 partner limits assumed): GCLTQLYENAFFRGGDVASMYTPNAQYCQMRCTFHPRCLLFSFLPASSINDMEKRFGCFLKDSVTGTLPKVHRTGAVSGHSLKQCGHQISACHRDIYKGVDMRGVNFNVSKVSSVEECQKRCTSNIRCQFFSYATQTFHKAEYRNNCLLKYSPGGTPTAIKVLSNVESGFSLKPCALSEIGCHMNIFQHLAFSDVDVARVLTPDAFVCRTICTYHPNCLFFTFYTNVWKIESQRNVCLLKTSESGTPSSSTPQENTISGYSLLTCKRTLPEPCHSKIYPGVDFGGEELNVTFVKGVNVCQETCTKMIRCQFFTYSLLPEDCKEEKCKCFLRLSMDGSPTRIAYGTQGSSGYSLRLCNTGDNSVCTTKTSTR

kinact/KI (human plasmin) [M⁻¹ s⁻¹] | kobs/[I] [1] [M⁻¹ s⁻¹] | half-life [2] [h] | kinact/KI (cathepsin G) [M⁻¹ s⁻¹] | kinact/KI (human plasma kallikrein) [M⁻¹ s⁻¹] | kinact/KI (human factor XIa) [M⁻¹ s⁻¹] | kinact/KI (human factor XIIa) [M⁻¹ s⁻¹] | kinact/KI (bovine trypsin) [M⁻¹ s⁻¹] | kinact/KI [3] [M⁻¹ s⁻¹] | kinact/KI [4] [M⁻¹ s⁻¹] | kinact/KI (bovine thrombin) [M⁻¹ s⁻¹] | kinact/KI (chymotrypsin) [M⁻¹ s⁻¹] | kinact/KI [5] [M⁻¹ s⁻¹] | Compound
36 | 8.1 | 10.1 | 2.8 | 30 | 30 | 3 | 1200 | 5 | 47 | 3 | 38 | 2.3 | NCCCOc1cc2ccccc2c(=O)o1 [3-(3-aminopropoxy)isocoumarin]
31 |  |  | 20 |  |  |  | 470 |  | 13500 |  |  | 1610 | COc1oc(=O)c2cc(NC(=O)[C@H](C)N)ccc2c1Cl [7-(Alanylamino)-3-Methoxy-4-Chloroisocoumarin Hydrochloride]
1470 |  |  | 4.9 |  |  |  | 32100 |  | 7710 | 51.5 |  | 1960 | COc1oc(=O)c2cc(NC(=O)CN)ccc2c1Cl [7-(glycylamino)-4-chloro-3-methoxyisocoumarin]

From patent publication US5324648A, “Substituted isocoumarins as serine protease inhibitors and anti-inflammatory agents” (Georgia Tech Research Corporation, priority 1992, dated 1994)
